Publication PMC9871955, “High-throughput screening of SARS-CoV-2 main and papain-like protease inhibitors” (Protein & Cell, 2022)
Where two headings read alike, the source gives them in different places.

Target: SARS-CoV-2 PL^pro (Severe acute respiratory syndrome coronavirus 2, UniProt P0DTD1)
Assay: SARS-CoV-2 PL^pro enzymatic inhibition assay (substrate Z-RLRGG-AMC)
Format: biochemical
[1] = Table S2, PL^pro inhibitors, 40 nmol/L enzyme, 50 µmol/L substrate, read-out: IC50
[2] = Table S6, S/KM = 1/4, read-out: IC50 (μM) at S/KM 1/4
[3] = Table S6, S/KM = 2, read-out: IC50 (μM) at S/KM 2
[4] = Table S6, S/KM = 4, read-out: IC50 (μM) at S/KM 4
[5] = read-out: IC50 (μM) at S/KM 1/2
[6] = read-out: IC50 (μM) at S/KM 1/4
[7] = read-out: IC50 / inhibitory activity toward PL^pro
[8] = Table S3, representative dual inhibitors, read-out: IC50 for PL^pro

| SMILES | IC50 [1] | IC50 [2] | IC50 [3] | IC50 [4] | IC50 (read-out: IC50 (μM) at S/KM 1) | IC50 [5] | IC50 [6] | IC50 (Table S6, S/KM = 1, read-out: IC50 (μM) at S/KM 1) | IC50 [7] | IC50 [8] |
| --- | --- | --- | --- | --- | --- | --- | --- | --- | --- | --- |
| CCC(C(=O)NCc1ccco1)n1c(Cc2c(Cl)cccc2Cl)nc2ccccc21 (stereo not shown) [CD3226-D010] | 8.61 ± 3.07 µM | 7.6 ± 1 µM |  |  |  |  |  |  |  |  |
| CC(C(=O)NCc1ccco1)n1c(Cc2c(Cl)cccc2Cl)nc2ccccc21 (stereo not shown) [CD3531-C011] | 1.98 ± 0.23 µM |  | 2.4 ± 0.2 µM | 2.7 ± 0.1 µM | 2.2 ± 0.3 µM | 1.5 µM | 1.5 ± 0.4 µM |  |  |  |
| O=C(NCc1n[nH]c(=S)n1-c1ccc(Br)cc1)c1ccc(Cl)cc1Cl [JK0108-D008] | 58.8 ± 15.3 µM | 100 ± 29.6 µM | 200 ± 47.6 µM | 133 ± 14.7 µM |  | 94.6 ± 11.3 µM |  | 102 ± 1.2 µM | 58.8 ± 15.3 µM |  |
| CCOc1cc(C(=O)NCc2n[nH]c(=S)n2-c2ccc(Br)cc2)cc(OCC)c1OCC [JK0109-B004] | 43 ± 0.92 µM | 2.4 ± 0.1 µM | 8.5 ± 0.9 µM | 18.3 ± 1 µM | 5.9 ± 0.6 µM | 2.6 ± 0.5 µM |  |  |  | 43 ± 0.9 µM |
| COc1ccc(-n2c(CNC(=O)COc3ccc(Cl)cc3Cl)n[nH]c2=S)cc1 [JK0109-B011] | 6.01 ± 0.02 µM |  | 12.4 ± 1.7 µM |  | 7.3 ± 0.1 µM | 7.4 ± 0.6 µM | 7.9 ± 1.7 µM |  | 6 µM |  |
| COc1ccc(-n2c(S)nnc2CNC(=O)c2cc(OC)c(OC)c(OC)c2)cc1 [JK0109-C011] | 21.2 ± 1.79 µM |  | 10.7 ± 0.7 µM | 18.6 ± 2.7 µM | 9.4 ± 2.9 µM | 7.1 ± 0.7 µM | 5.9 ± 0.2 µM |  |  | 21.2 ± 1.8 µM |
| O=C(COc1ccc(Cl)cc1)NCc1n[nH]c(=S)n1-c1ccc(Br)cc1 [JK0109-H005] |  |  | 78.5 ± 5.7 µM | 91.6 ± 8.9 µM | 33 ± 17.9 µM | 21.9 ± 2 µM |  |  |  |  |
| O=c1sc2ccccc2n1Cc1n[nH]c(=S)n1-c1ccccc1 [JK0946-F007] |  |  | 105 ± 4.7 µM | 202 ± 50.9 µM | 43.9 ± 9 µM | 30.3 ± 2.3 µM |  |  |  |  |
